Measured values reported in the Kinase Knowledgebase extract (Sharma et al. 2016).

target: MAPK14 (human) (UniProt Q16539); assay: Inhibition of LPS Induced IL-1Beta Production in Huamn PBMC
Sequence (Q16539 whole entry, looked up): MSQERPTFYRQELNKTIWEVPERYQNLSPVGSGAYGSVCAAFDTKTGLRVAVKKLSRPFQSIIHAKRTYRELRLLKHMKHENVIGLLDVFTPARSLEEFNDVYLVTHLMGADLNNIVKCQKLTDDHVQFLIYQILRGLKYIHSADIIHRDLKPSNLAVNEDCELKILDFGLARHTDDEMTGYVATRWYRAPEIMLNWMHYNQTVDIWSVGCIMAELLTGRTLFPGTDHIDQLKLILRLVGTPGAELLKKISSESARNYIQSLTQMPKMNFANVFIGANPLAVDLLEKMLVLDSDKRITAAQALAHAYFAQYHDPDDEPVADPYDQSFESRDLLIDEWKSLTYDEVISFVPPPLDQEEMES

Compound	IC50
C[C@H](Nc1nccc(-c2c(-c3ccc(F)cc3)c(=O)n3n2CCC3)n1)c1ccccc1	0.8 nM
COC[C@H](C)Nc1nccc(-c2c(-c3ccc(F)cc3)c(=O)n3n2CCC3)n1	39 nM
C[C@H](Nc1nccc(-c2c(-c3ccc(F)cc3)c(=O)n3n2CCC3)n1)C(C)(C)O	42 nM

target: MAPK14 (human) (UniProt Q16539); assay: Inhibition of LPS Induced TNF-alpha Production in THP1 Cells

Compound	IC50
C[C@H](Nc1nccc(-c2c(-c3ccc(F)cc3)c(=O)n3n2CCC3)n1)c1ccccc1	3 nM
C[C@@H](Nc1nccc(-c2c(-c3ccc(F)cc3)c(=O)n3n2CCC3)n1)c1ccccc1	27 nM
C[C@H](Nc1nccc(-c2c(-c3ccc(F)cc3)c(=O)n3n2CCC3)n1)C1CCCCC1	38 nM
O=c1c(-c2ccc(F)cc2)c(-c2ccnc(Nc3c(Cl)ncnc3Cl)n2)n2n1CCC2	476 nM
C=CCNc1nccc(-c2c(-c3ccc(F)cc3)c(=O)n3n2CCC3)n1	30 nM
O=c1c(-c2ccc(F)cc2)c(-c2ccnc(NCc3ccccc3)n2)n2n1CCC2	74 nM
CC(C)(C)Nc1nccc(-c2c(-c3ccc(F)cc3)c(=O)n3n2CCC3)n1	24 nM
CC[C@H](C)Nc1nccc(-c2c(-c3ccc(F)cc3)c(=O)n3n2CCC3)n1	2 nM
O=c1c(-c2ccc(F)cc2)c(-c2ccnc(Nc3c(F)cccc3F)n2)n2n1CCC2	6 nM
COC(=O)[C@H](Nc1nccc(-c2c(-c3ccc(F)cc3)c(=O)n3n2CCC3)n1)c1ccccc1	147 nM
O=c1c(-c2ccc(F)cc2)c(-c2ccnc(NC3CC3)n2)n2n1CCC2	78 nM
C[C@H](Nc1nccc(-c2c(-c3ccc(F)cc3)c(=O)n3n2CCCC3)n1)C(C)(C)O	260 nM
COC[C@H](C)Nc1nccc(-c2c(-c3ccc(F)cc3)c(=O)n3n2CCCC3)n1	543 nM
O=c1c(-c2ccc(F)cc2)c(-c2ccnc(Nc3c(Cl)cccc3Cl)n2)n2n1CCC2	4 nM
O=c1c(-c2ccc(F)cc2)c(-c2ccnc(NCc3ccccn3)n2)n2n1CCC2	263 nM
O=c1c(-c2ccc(F)cc2)c(-c2ccnc(NCC3CC3)n2)n2n1CCC2	94 nM
C[C@H](Nc1nccc(-c2c(-c3ccc(F)cc3)c(=O)n3n2CCCC3)n1)c1ccccc1	29 nM
Cc1ccc([C@H](C)Nc2nccc(-c3c(-c4ccc(F)cc4)c(=O)n4n3CCC4)n2)cc1	37 nM
O=c1c(-c2ccc(F)cc2)c(-c2ccnc(Nc3ccccc3)n2)n2n1CCC2	80 nM
COC[C@H](C)Nc1nccc(-c2c(-c3ccc(F)cc3)c(=O)n3n2CCC3)n1	50 nM
O=c1c(-c2ccc(F)cc2)c(-c2ccnc(NCc3cccnc3)n2)n2n1CCC2	121 nM
CC[C@H](C)Nc1nccc(-c2c(-c3ccc(F)cc3)c(=O)n3n2CCCC3)n1	106 nM
O=c1c(-c2ccc(F)cc2)c(-c2ccnc(Nc3ccccn3)n2)n2n1CCC2	600 nM
COCCCNc1nccc(-c2c(-c3ccc(F)cc3)c(=O)n3n2CCC3)n1	301 nM

target: MAPK14 (human) (UniProt Q16539); assay: Inhibition of LPS Induced TNF-alpha Production in Human PBMC

Compound	IC50
C[C@H](Nc1nccc(-c2c(-c3ccc(F)cc3)c(=O)n3n2CCC3)n1)c1ccccc1	0.4 nM
COC[C@H](C)Nc1nccc(-c2c(-c3ccc(F)cc3)c(=O)n3n2CCC3)n1	16 nM
C[C@H](Nc1nccc(-c2c(-c3ccc(F)cc3)c(=O)n3n2CCC3)n1)C(C)(C)O	8 nM
